For assay [1], the system named is Aspergillus niger, Cladosporium cladosporioides and Penicillium chrysogenum. As to the kind of experiment: Mycelial elongation of filamentous fungi on agar with rare sugar. To be noted: 0.05% (w/v) in agar medium, 25° C., 4 days. It is filed as cell-based. The procedure:
By using as targets, Aspergillus niger, Cladosporium cladosporioides and Penicillium chrysogenum, which are typical filamentous fungi and generally seen in a living environment, an effect of a rare sugar on mycelial elongation was examined.
As the test fungal strains, NBRC 4066 strain, NBRC 4459 strain and NBRC 4626 strain were used.
Each test fungal strain was cultured on a potato dextrose agar medium at 25° C. for 7 days, and one in which the mycelium extended over the surface of the dish was pushed out along with the agar medium in such a manner that the agar medium was in a disc form with a diameter of 1.1 cm, which was placed at the center of a dish filled with an agar medium (1% Bacto agar) supplemented with any of a variety of rare sugars (allitol, D-altrose, L-mannose, L-galactose, D-tagatose, D-sorbose, D-psicose, D-allose, D-glucose and D-fructose) at 0.05% (w/v) and cultured at 25° C. for 4 days. After the cultivation, the length of the mycelium extending on the surface of the culture medium was measured. Two culture media were prepared for each test plot, and the mycelial length represents the average thereof.

In assay [2] the test system is Fusarium oxysporum, Glomerella cingulata, Verticillium dahliae and Botrytlis cinerea. As to the kind of experiment: Mycelial elongation of plant pathogenic bacteria on agar with rare sugar. To be noted: 0.05% (w/v) in agar medium, 23° C., 7 days. It is filed as cell-based. The method, then: By using as targets, Fusarium oxysporum, Glomerella cingulata, Verticillium dahliae and Botrytlis cinerea, which are typical plant pathogenic bacteria, an effect of a rare sugar on mycelial elongation was examined.
As the test bacterial strains, IFO 31213 strain, IFO 6425 strain, IFO 9765 strain and IFO 9760 strain were used.
After the cultivation, the length of the extending mycelium was measured.

Another assay deals with chitinase gene. As to the kind of experiment: Northern blotting of chitinase gene expression in sprayed cut leaves of rough lemon. To be noted: 0.5 mM sprayed on cut leaves, 2 to 48 hours. It is filed as in vivo. The procedure:
Cut leaves of rough lemon were treated by spraying each of 0.5 mM L-psicose, L- & D-tagatose and D-sorbose thereon and were let stand for 2, 4, 6, 12, 24 and 48 hours at 24° C. under the dark condition in a moist chamber. Then, from the treated leaves, total RNA was extracted and the expression of genes of lipoxygenase and chitinase was analyzed by Northern blotting. The assays and analyses were repeated at least 3 times in all the treated plots, and equivalent results were obtained.

For assay [3], the system named is Brassica rapa var. amplexicaulis (variety: “Haru Ichiban”). The experiment in a line: Foliar spraying of sugar on Brassica rapa var. amplexicaulis. It is filed as in vivo. To be noted: 0.5% solution sprayed. The text has this:
Brassica rapa var. amplexicaulis is a vegetable in the Brassica family, and flower buds are harvested and used. As the same species of vegetables, broccoli, cauliflower and the like are exemplified, which are important horticultural crops. As for such a vegetable, development of flower buds has a large effect on the crop yield. Therefore, during the house cultivation of Brassica rapa var. amplexicaulis (variety: “Haru Ichiban”), foliar spraying of a sugar solution at a concentration of 0.5% (w/v) was carried out and effects on the growth and the development of flower buds were examined. The seeds of Brassica rapa var. amplexicaulis were sown in a 128-cell tray on Oct. 23, 2003 and raised for about 20 days. Then, the raised seedlings were transplanted for permanent planting with a planting distance of 40 cm on two rows with an inter row space of 50 cm in separate beds filled with soil for cultivation “Hana to Yasai no Tsuchi (garden soil for flowers and vegetables)” (Kurokawa Shubyo En) on Nov. 12, 2003. The cultivation was carried out by a simple fertigation system, and irrigation was carried out for 1 hour on a daily basis with a 2,000-fold dilution of Hyponex through an irrigation tube. The cultivation was carried out in a vinyl house without heating with side windows open. From Dec. 18, 2003, water or a 0.5% (w/v) sugar solution was sprayed onto the whole plant on a three times weekly basis. As for the types of sugars, D-glucose, D-fructose and D-psicose were used and five plants were cultivated for each test plot. On Feb. 23, 2004, three plants of medium size were harvested and a survey was carried out. The survey items were plant length, stem diameter, number of lateral buds, terminal bud weight, total weight of lateral buds and the like.

The subject of assay [4] is Pythium ultimum IFO 32426 strain. As to the kind of experiment: Oospore formation of Pythium ultimum in sugar solution. It is filed as cell-based. Particulars: 0.05% (w/v) sugar solution, 23° C., 4 days. The procedure: With regard to Pythium ultimum that causes damping-off of spinach and the like, an effect of a rare sugar on oospore formation was examined.
First, as the Pythium ultimum, IFO 32426 strain was used, and static culture thereof was carried out with 200 ml of V8 medium at 23° C. for 1 week. The resulting mycelial mat was well washed with sterile water and divided into 16 equal parts with forceps. This mycerial body was disentangled uniformly to form a small piece and immersed in 20 ml of a sugar solution at a concentration of 0.05% (w/v) and let stand at 23° C. for 4 days. […] Further, the same experiment was carried out using Pythium zingiberum IFO 30817 strain.

Another assay has as its system Salsola komarovii. As to the kind of experiment: Seed germination, short-time and continuous treatment (Experiment 2). It is filed as in vivo. To be noted: immersed in 1% solution for 24 hours, in the end; DW 28%. The procedure: In order to clarify an effect of a short-time treatment, 50 seeds of Salsola komarovii, tomato (Home Momotaro) and sunny lettuce (Red Wave), and 20 seeds of morning glory (Tairin Zaki Kongo) were immersed in any of deionized water, 1% D-psicose, 1% D-allose and 1% L-galactose for 24 hours (25° C., dark), respectively, then, they were lightly washed with deionized water. Then, the seeds were sown in a dish with a diameter of 9 cm having a filter paper placed therein, and germinated under the same condition by poring 5 to 10 ml of deionized water therein. Further, for the comparison, a continuous treatment with 1% D-psicose was carried out in accordance with the same procedure.

For assay [5], the system named is Arabidopsis thaliana Lan dsberg erecta (LER). As to the kind of experiment: Germination of Arabidopsis thaliana with 8 ketoses. It is filed as in vivo. To be noted: 100 mM aqueous solution. The procedure: An effect of 8 types of ketoses on germination of Arabidopsis thaliana LER series which was an experimental plant was examined.
Two sheets of filter paper were placed in a dish with a diameter of 3.5 cm, and 30 seeds of Arabidopsis thaliana Lan dsberg erecta (LER) were sown per dish, and 0.5 mL of a treatment liquid was poured therein. Then, the dishes were placed in an environment control chamber under the condition of a constant temperature of 25° C. and 24-hour day length (fluorescent lamp, 70 μmol/m^2/s). After the sowing, a survey was carried out with regard to the number of seeds that germinated at 24-hour interval. As the treatment liquid, 100 mM, 10 mM and 1 mM aqueous solutions of any of D-fructose, D-psicose, D-tagatose, D-sorbose, L-fructose, L-psicose, L-tagatose and L-sorbose, and distilled water were used. The procedure was repeated three times for the respective treatment liquids.

The test system of assay [6] is cherry tomato plant “mini carol”. As to the kind of experiment: Hydroponic growth of cherry tomato with 0.05 or 0.5 mM sugar, 10 days. To be noted: 0.5 mM. It is filed as in vivo. The procedure: Subsequently, a cherry tomato plant “mini carol” was transplanted for permanent planting to a hydroponic apparatus, and a total of 7 treated plots in which a plot without addition (control plot) was added to 6 treated plots with the use of a nutrient solution supplemented with 0.05 mM or 0.5 mM D-psicose, D-fructose or mannitol were prepared. A survey was carried out with regard to the growth at 10 days after the permanent planting. […] The stem diameter was the smallest in the case of 0.5 mM D-psicose. The number of leaves was the smallest in the case of 0.5 mM D-psicose and 0.5 mM mannitol. The root length was the smallest in the case of 0.5 mM psicose.

The subject of assay [7] is Fusarium oxysporum (IFO 31213 strain). It is filed as in vivo, tomato plant (variety: “House Momotaro”). The method, then: By using a tomato plant and a strain of Fusarium oxysporum, which is a typical pathogenic bacterium of tomato, an effect of D-psicose during infection in a stage of raising seedlings thereof was examined.
To be more specific, seeds of a tomato plant (variety: “House Momotaro”) were subjected to an immersion treatment by immersing them in a 0.01% (w/v) D-psicose solution or a 0.007% (w/v) probenazole solution for 15 minutes while stirring slowly, followed by air-drying on sterile gauze, and then used as treated seeds. In the medium culture for raising seedlings (pete:pearlite:vermiculite=2:1:1), 0.01% (w/v) D-psicose or 0.007% (w/v) probenazole was mixed, and the soil was placed in black polypot plant containers with a diameter of 9 cm, and then, 4 seeds of the above treated seeds were sown in each pot. The seeds (20 seeds in total) were sown in 5 pots for each test plot. After sowing, the pots were placed in a growth chamber at 23° C. and 5,000 Lux (12-hour day length), and raising of seedlings was initiated. At 1 month and 2 months after the initiation of raising of seedlings, a suspension of mycelium of Fusarium oxysporum (IFO 31213 strain) was inoculated around the roots, whereby infection with Fusarium oxysporum was caused. After the inoculation of Fusarium oxysporum, the temperature was raised to 30° C., and cultivation was continued. At about 4 months after sowing, a survey was carried out with regard to the survival rate of plants, the conditions of browning of vascular bundles and roots, the stem diameter and the like.

Turning to `O=C[C@@H](O)[C@H](O)[C@H](O)[C@H](O)CO` [D-altrose], in [1], the “effect on mycelial elongation” value was “have an effect of inhibiting mycelial elongation”. In assay [2], the “inhibitory effect on mycelial elongation” value is given as “the highest inhibitory effect”.
Regarding `O=C(CO)[C@@H](O)[C@@H](O)[C@H](O)CO` [D-tagatose], the “induction of the expression of chitinase gene” value with chitinase gene was “more strongly than D-psicose”.
Turning to `O=C[C@@H](O)[C@H](O)[C@H](O)[C@@H](O)CO` [L-galactose], the Terminal bud weight in [3] (control (water) 3.0) was 9.6 g. The Stem diameter in [3] (control (water) 22.8) worked out at 21.7 mm. For the same compound, in [3] (control (water) 32.3), the “Number of lateral buds” value was determined as 48.3. Further, in [3] (control (water) 49.3), the Plant length is 52.7 cm. Besides, in assay [3] (control (water) 235.3), the “Total weight of lateral buds” value is given as 250.6 g. Further, in assay [4], the oospore formation result is given as “inhibited”. Further, in [1], the “effect on mycelial elongation” value was “have an effect of inhibiting mycelial elongation”. This compound also yielded a germination rate in the assay with Salsola komarovii of 34%.
Regarding `O=C(CO)[C@@H](O)[C@@H](O)[C@@H](O)CO` [L-psicose], the inhibition of germination result in assay [5] is on record as “not clearly observed”.
As to `OC[C@@H](O)[C@@H](O)[C@H](O)[C@H](O)CO` [mannitol, reference compound], the “number of leaves, rank among 7 treated plots” value in [6] was “the smallest”.
Take `C=CCOC1=NS(=O)(=O)c2ccccc21` [probenazole, reference compound]: the “Vascular bundle browning ratio” value in assay [7] (seed immersion (0.01% D-psicose or 0.007% probenazole), no seed treatment 25%) is listed as 5%. The Stem diameter result in assay [7] (seed immersion treatment) is recorded as “increased”.

The record behind these values is US8017828B2, “Utilization of rare sugars in plant or microorganism” (Shikoku Research Institute Incorporated, priority 2004, dated 2011).
